{"source": "ChEMBL document CHEMBL3885861", "about": "“Open TG-GATES”", "organism": "Rattus norvegicus", "assay": "Open TG-GATES - Regimen: Daily Repeat", "type": "toxicity, organism-based, Sprague-Dawley", "set-up": "regimen Daily Repeat, gender Male, age 6 weeks", "conditions": "in vivo, po, 2 mg/kg, route gavage, dose level Low; for APTT / Bas / Eos / Fbg / Hb / Ht / Lym / MCH / MCHC / MCV / Mono / Neu / PT / Plat / RBC / Ret / WBC: tissue Blood", "key": {"[1]": {"conditions": "72 h, tissue Plasma, time 3 day"}}}
{"smiles": "CN(CCOc1ccc(CC2SC(=O)NC2=O)cc1)c1ccccn1.O=C(O)/C=C\\C(=O)O", "note": "(configuration not stated) [ROSIGLITAZONE MALEATE]", "values": [{"measurement": "TERMINAL_BW", "setting": "72 h, time 3 day", "result": 243.4, "unit": "g"}, {"measurement": "APTT", "setting": "72 h, time 3 day", "result": 15.7, "unit": "s"}, {"measurement": "Bas", "setting": "72 h, time 3 day", "result": 0, "unit": "%"}, {"measurement": "Eos", "setting": "72 h, time 3 day", "result": 1, "unit": "%"}, {"measurement": "Fbg", "setting": "72 h, time 3 day", "result": 233.4, "unit": "mg/dL"}, {"measurement": "Hb", "setting": "72 h, time 3 day", "result": 13.2, "unit": "g/dL"}, {"measurement": "Ht", "setting": "72 h, time 3 day", "result": 40.2, "unit": "%"}, {"measurement": "Lym", "setting": "72 h, time 3 day", "result": 73, "unit": "%"}, {"measurement": "MCH", "setting": "72 h, time 3 day", "result": 20.7, "unit": "pg"}, {"measurement": "MCHC", "setting": "72 h, time 3 day", "result": 32.7, "unit": "%"}, {"measurement": "MCV", "setting": "72 h, time 3 day", "result": 63.4, "unit": "fL"}, {"measurement": "Mono", "setting": "72 h, time 3 day", "result": 7.4, "unit": "%"}, {"measurement": "Neu", "setting": "72 h, time 3 day", "result": 18.8, "unit": "%"}, {"measurement": "PT", "setting": "72 h, time 3 day", "result": 11.7, "unit": "s"}, {"measurement": "Plat", "setting": "72 h, time 3 day", "result": 133, "unit": "x10_4/uL"}, {"measurement": "RBC", "setting": "72 h, time 3 day", "result": 634.8, "unit": "x10_4/ul"}, {"measurement": "Ret", "setting": "72 h, time 3 day", "result": 6.7, "unit": "%"}, {"measurement": "WBC", "setting": "72 h, time 3 day", "result": 88.6, "unit": "x10_2/uL"}, {"measurement": "KIDNEY_TOTAL", "setting": "72 h, tissue Kidney, time 3 day", "result": 0.7, "unit": "g"}, {"measurement": "LIVER", "setting": "72 h, tissue Liver, time 3 day", "result": 12.2, "unit": "g"}, {"measurement": "A/G", "setting": "[1]", "result": 2.1}, {"measurement": "ALP", "setting": "[1]", "result": 1105.8, "unit": "IU/L"}, {"measurement": "ALT", "setting": "[1]", "result": 36, "unit": "IU/L"}, {"measurement": "AST", "setting": "[1]", "result": 64.2, "unit": "IU/L"}, {"measurement": "BUN", "setting": "[1]", "result": 15.6, "unit": "mg/dL"}, {"measurement": "CRE", "setting": "[1]", "result": 0.2, "unit": "mg/dL"}, {"measurement": "Ca", "setting": "[1]", "result": 11.5, "unit": "mg/dL"}, {"measurement": "Cl", "setting": "[1]", "result": 104.4, "unit": "meq/L"}, {"measurement": "DBIL", "setting": "[1]", "result": 0.01, "unit": "mg/dL"}, {"measurement": "GLC", "setting": "[1]", "result": 189.4, "unit": "mg/dL"}, {"measurement": "IP", "setting": "[1]", "result": 8, "unit": "mg/dL"}, {"measurement": "K", "setting": "[1]", "result": 4.6, "unit": "meq/L"}, {"measurement": "LDH", "setting": "[1]", "result": 128.2, "unit": "IU/L"}, {"measurement": "Na", "setting": "[1]", "result": 140.8, "unit": "meq/L"}, {"measurement": "PL", "setting": "[1]", "result": 152.2, "unit": "mg/dL"}, {"measurement": "RALB", "setting": "[1]", "result": 3.9, "unit": "g/dL"}, {"measurement": "TBIL", "setting": "[1]", "result": 0.034, "unit": "mg/dL"}, {"measurement": "TC", "setting": "[1]", "result": 83, "unit": "mg/dL"}, {"measurement": "TG", "setting": "[1]", "result": 88.2, "unit": "mg/dL"}, {"measurement": "TP", "setting": "[1]", "result": 5.8, "unit": "g/dL"}, {"measurement": "gamma-GTP", "setting": "[1]", "result": 0, "unit": "IU/L"}, {"measurement": "TERMINAL_BW", "setting": "[…], time 7 day", "result": 271.5, "unit": "g"}, {"measurement": "TERMINAL_BW", "setting": "[…], time 14 day", "result": 343.6, "unit": "g"}, {"measurement": "TERMINAL_BW", "setting": "[…], time 28 day", "result": 425.3, "unit": "g"}, {"measurement": "APTT", "setting": "[…], time 7 day", "result": 16.1, "unit": "s"}, {"measurement": "Bas", "setting": "[…], time 7 day", "result": 0, "unit": "%"}, {"measurement": "Eos", "setting": "[…], time 7 day", "result": 1, "unit": "%"}, {"measurement": "Fbg", "setting": "[…], time 7 day", "result": 246.6, "unit": "mg/dL"}, {"measurement": "Hb", "setting": "[…], time 7 day", "result": 13.3, "unit": "g/dL"}, {"measurement": "Ht", "setting": "[…], time 7 day", "result": 40.4, "unit": "%"}, {"measurement": "Lym", "setting": "[…], time 7 day", "result": 77.6, "unit": "%"}, {"measurement": "MCH", "setting": "[…], time 7 day", "result": 20.9, "unit": "pg"}, {"measurement": "MCHC", "setting": "[…], time 7 day", "result": 32.9, "unit": "%"}, {"measurement": "MCV", "setting": "[…], time 7 day", "result": 63.5, "unit": "fL"}, {"measurement": "Mono", "setting": "[…], time 7 day", "result": 5.2, "unit": "%"}, {"measurement": "Neu", "setting": "[…], time 7 day", "result": 16.2, "unit": "%"}, {"measurement": "PT", "setting": "[…], time 7 day", "result": 11.5, "unit": "s"}, {"measurement": "Plat", "setting": "[…], time 7 day", "result": 134.4, "unit": "x10_4/uL"}, {"measurement": "RBC", "setting": "[…], time 7 day", "result": 636.8, "unit": "x10_4/ul"}, {"measurement": "Ret", "setting": "[…], time 7 day", "result": 5.1, "unit": "%"}, {"measurement": "WBC", "setting": "[…], time 7 day", "result": 102.8, "unit": "x10_2/uL"}, {"measurement": "APTT", "setting": "[…], time 14 day", "result": 15.3, "unit": "s"}, {"measurement": "Bas", "setting": "[…], time 14 day", "result": 0, "unit": "%"}, {"measurement": "Eos", "setting": "[…], time 14 day", "result": 0.8, "unit": "%"}, {"measurement": "Fbg", "setting": "[…], time 14 day", "result": 233.4, "unit": "mg/dL"}, {"measurement": "Hb", "setting": "[…], time 14 day", "result": 13.4, "unit": "g/dL"}, {"measurement": "Ht", "setting": "[…], time 14 day", "result": 40.9, "unit": "%"}, {"measurement": "Lym", "setting": "[…], time 14 day", "result": 77.6, "unit": "%"}, {"measurement": "MCH", "setting": "[…], time 14 day", "result": 20.2, "unit": "pg"}, {"measurement": "MCHC", "setting": "[…], time 14 day", "result": 32.8, "unit": "%"}, {"measurement": "MCV", "setting": "[…], time 14 day", "result": 61.5, "unit": "fL"}, {"measurement": "Mono", "setting": "[…], time 14 day", "result": 5.4, "unit": "%"}, {"measurement": "Neu", "setting": "[…], time 14 day", "result": 16.2, "unit": "%"}, {"measurement": "PT", "setting": "[…], time 14 day", "result": 11.7, "unit": "s"}, {"measurement": "Plat", "setting": "[…], time 14 day", "result": 116.6, "unit": "x10_4/uL"}, {"measurement": "RBC", "setting": "[…], time 14 day", "result": 666, "unit": "x10_4/ul"}, {"measurement": "Ret", "setting": "[…], time 14 day", "result": 3.8, "unit": "%"}, {"measurement": "WBC", "setting": "[…], time 14 day", "result": 109.2, "unit": "x10_2/uL"}, {"measurement": "APTT", "setting": "[…], time 28 day", "result": 15.7, "unit": "s"}, {"measurement": "Bas", "setting": "[…], time 28 day", "result": 0, "unit": "%"}, {"measurement": "Eos", "setting": "[…], time 28 day", "result": 1, "unit": "%"}, {"measurement": "Fbg", "setting": "[…], time 28 day", "result": 236.8, "unit": "mg/dL"}]}
